Reference: a compilation of properties of binary mixtures (doi:10.1007/s10953-022-01154-2)

Assay: xn = mol fraction of the nth substance listed
Conditions: 101.3 kPa, x2 = 0

CC1COC(=O)O1 (stereo not drawn) + CC[n+]1ccn(C)c1.N#C[S-]
Conditions | viscosity [mPa·s]
298.15 K | 2.496
303.15 K | 2.164
313.15 K | 1.731
318.15 K | 1.586
323.15 K | 1.466
328.15 K | 1.373
338.18 K | 1.223
343.15 K | 1.173
